Results on ten molecules are retold here after ChEMBL document CHEMBL1151083, “Synthesis & characterization of N-amino-glyphosate as a potent analog inhibitor of E. coli EPSP synthase” (Bioorg Med Chem Lett, 1993).

Test [1] deals with T1, 3-phosphoshikimate 1-carboxyvinyltransferase (Escherichia coli K-12, UniProt P0A6D3).
T1 sequence (P0A6D3 whole entry): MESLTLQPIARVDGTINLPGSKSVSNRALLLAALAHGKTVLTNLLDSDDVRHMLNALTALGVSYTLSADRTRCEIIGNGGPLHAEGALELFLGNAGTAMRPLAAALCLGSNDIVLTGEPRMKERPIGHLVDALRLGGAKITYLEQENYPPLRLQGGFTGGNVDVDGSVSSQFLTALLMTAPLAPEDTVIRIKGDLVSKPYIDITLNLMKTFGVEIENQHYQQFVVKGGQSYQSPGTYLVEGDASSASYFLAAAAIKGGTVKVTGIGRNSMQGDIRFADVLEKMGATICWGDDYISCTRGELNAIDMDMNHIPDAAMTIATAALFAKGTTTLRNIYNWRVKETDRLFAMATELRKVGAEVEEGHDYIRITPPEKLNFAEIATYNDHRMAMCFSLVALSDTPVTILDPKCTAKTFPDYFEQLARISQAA
Put plainly: Tested for the inhibition against Escherichia coli 5-enolpyruvyl-shikimate-3-phosphate synthase.

The target in test [2] is T1, 3-phosphoshikimate 1-carboxyvinyltransferase. Kind of test: Tested for the inhibition against Escherichia coli 5-enolpyruvyl-shikimate-3-phosphate synthase versus phosphoenolpyruvate.
For test [3], the target named is T2, 3-phosphoshikimate 1-carboxyvinyltransferase (Escherichia coli K-12) (UniProt P0A6D3).
T2 sequence (whole entry): T1 sequence (P0A6D3 whole entry)
Description: Tested for the dissociation rate against Escherichia coli 5-enolpyruvyl-shikimate-3-phosphate synthase

The target of test [4] is T2, 3-phosphoshikimate 1-carboxyvinyltransferase (Escherichia coli K-12). The source holds these as a separate data set.
Description: Tested for the rate of association against Escherichia coli 5-enolpyruvyl-shikimate-3-phosphate synthase
In test [5] the target is T1, 3-phosphoshikimate 1-carboxyvinyltransferase. Kind of test: Tested for the dissociation constant against Escherichia coli 5-enolpyruvyl-shikimate-3-phosphate synthase.

`CN(CC(=O)O)CP(=O)(O)O` came in with an IC50 in test [1] of 150 µM. In addition, the Ki in test [2] was determined as 78 µM.

Turning to `O=C(O)CN(O)CP(=O)(O)O`, affinity in test [2] was put at a Ki of 2.2 µM.

In the case of `NC(CC(=O)O)CP(=O)(O)O` (stereo not given), in test [1], the IC50 was greater than 80 µM.

In test [1], `CC(NCC(=O)O)P(=O)(O)O` (stereo not given) displayed an IC50 greater than 80 µM.

`COC(=O)CNCP(=O)(O)O` gave an IC50 in test [1] greater than 1 µM.

`O=NN(CC(=O)O)CP(=O)(O)O` returned a Ki in test [2] of 2.2 µM.

`O=C(O)CNCP(=O)(O)O`: the k off in test [3] turned out to be 0.12 s⁻¹. For the same molecule, the k on in test [4] came out at 780000 M⁻¹ s⁻¹.

In turn, `CC(NCP(=O)(O)O)C(=O)O` (stereo not given) returned an IC50 in test [1] greater than 80 µM.

For the molecule `NN(CC(=O)O)CP(=O)(O)O`, in test [5], the dissociation constant (Kd) is 0.5 µM. Also, in test [3], the k off is 0.16 s⁻¹. The molecule also returned a k on in test [4] of 320000 M⁻¹ s⁻¹. Further, the affinity in test [2] corresponds to a Ki of 0.61 µM.

On to `O=C(O)CNC[PH](=O)O`, for which, in test [1], the IC50 turned out to be 700 µM.
